The record followed here is PMC8041284, “Tunable Methacrylamides for Covalent Ligand Directed Release Chemistry” (Journal of the American Chemical Society, 2021).

Molecules are shown by their SMILES.

Chain of BTK (Q06187 402-655 limits assumed): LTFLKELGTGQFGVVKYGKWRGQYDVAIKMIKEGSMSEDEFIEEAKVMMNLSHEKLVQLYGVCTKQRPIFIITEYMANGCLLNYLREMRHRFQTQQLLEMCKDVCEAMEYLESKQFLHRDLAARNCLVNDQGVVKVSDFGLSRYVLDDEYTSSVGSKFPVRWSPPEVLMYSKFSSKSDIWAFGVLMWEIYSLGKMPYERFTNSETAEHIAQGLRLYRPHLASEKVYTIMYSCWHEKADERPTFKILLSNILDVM

One assay addresses BTK (Homo sapiens, UniProt Q06187). Put plainly: biochemical. As to conditions: read-out: BTK inhibition (%).
Turning to `CCC1(O)C(=O)OCc2c1cc1n(c2=O)Cc2cc3cc(O)ccc3nc2-1` (stereo not shown) [PCM-0094873], the inhibition (in general, the drop in the measured response relative to a control, in per cent) at 10 µM is 6.2%.

Staying with this assay, now noted: read-out: BTK inhibition (%), 0.75 uM BTK, […] probe 3l, 15 min preincubation.
As for `CO[C@H]1C[C@@H]2CC[C@@H](C)[C@@](O)(O2)C(=O)C(=O)N2CCCC[C@H]2C(=O)O[C@H]([C@H](C)C[C@@H]2CC[C@@H](OP(C)(C)=O)[C@H](OC)C2)CC(=O)[C@H](C)/C=C(\C)[C@@H](O)[C@@H](OC)C(=O)[C@H](C)C[C@H](C)/C=C/C=C/C=C/1C` [PCM-0214600], the inhibition at 10 µM was -16.6%.
Regarding `Nc1ncnc2c1ncn2[C@@H]1O[C@H](CO)[C@@H](O)[C@H]1O` [PCM-0090045], the inhibition at 10 µM was determined as 14%.
`COc1ccc(NS(=O)(=O)c2sc3ccc(Cl)cc3c2C)cc1N1CCNCC1` [PCM-0095497]: the inhibition at 10 µM is -35%.
Turning to `O=c1c2ccccc2nc(/C=C/c2cccnc2)n1Cc1ccccc1` [PCM-0102024], the inhibition at 10 µM came out at 0%.
Consider `NC(=O)[C@@H](CCC(F)(F)F)N(Cc1ccc(-c2ncon2)cc1F)S(=O)(=O)c1ccc(Cl)cc1` [PCM-0214565], for which the inhibition at 10 µM is 9.3%.
Turning to `O=C(O)COCCN1CCN(C(c2ccccc2)c2ccc(Cl)cc2)CC1` (stereo not shown) [PCM-0065180], the inhibition at 10 µM stood at 15.2%.
On the same count and under the same terms, the figure for `C[C@](N)(Cc1ccc(O)c(O)c1)C(=O)O` [PCM-0065509] is -18.7%; for `COC(=O)c1cc(OC)c2c(c1-c1c(C(=O)OC)cc(OC)c3c1OCO3)OCO2` [PCM-0216065] it is 2.8%; for `CCCCOc1ccc(C(=O)Nc2ccc(F)cc2F)cc1` [PCM-0095388] it is -5.4%.
Same read-out and setting: as for `Nc1ccnc(=O)[nH]1` [PCM-0215139], the figure is -5.4%.
The same measure, in the same setting: as for `OC[C@@H](O)[C@@H](O)CO` [PCM-0214773], the figure is 7.8%; as for `Cc1ccc(C(=O)Nc2ccc(CN3CCN(C)CC3)c(C(F)(F)F)c2)cc1C#Cc1cnc2cccnn12` [PCM-0095174], 92.4%; as for `C[C@@H]1COCCN1c1cc(C2(S(C)(=O)=O)CC2)nc(-c2cccc3[nH]ccc23)n1` [PCM-0095779], -7.6%.
Take `Cn1cc(-c2ccc3nnc(C(F)(F)c4ccc5ncccc5c4)n3n2)cn1` [PCM-0094910]: the inhibition at 10 µM was -1.4%.
The same measure, in the same setting: the figure for `CCOc1cc(N2CCC(O)CC2)ccc1Nc1ncc2c(n1)N(C)c1ccccc1C(=O)N2C` [PCM-0095769] is -6.2%; for `CN(C)CCCCC(=O)Nc1ccc(NC(=S)NC(=O)c2ccc(C(C)(C)C)cc2)cc1` [PCM-0214793] it is 7%; for `OC1CCC(Oc2cccc3cnc(Nc4ccc5nc[nH]c5c4)nc23)CC1` (stereo not shown) [PCM-0215798] it is 66.2%.
Consider `CCCCc1nc(Cl)c(CO)n1Cc1ccc(-c2ccccc2-c2nnn[nH]2)cc1` [PCM-0086291], for which the inhibition at 10 µM is -10.9%.
Still for that read-out and setting: as for `CCC[C@H](Nc1nc(-c2ccc(NC(=O)NCC)c(OC)c2)ncc1C)c1cccnc1` [PCM-0095772], the figure is -14%.
With `CCOC(=O)c1ccc(NC2CCCCC2)c(N)c1` [PCM-0095725], the inhibition at 10 µM came out at 31.7%.
With `COC(=O)[C@H]1[C@H]2C[C@@H]3c4[nH]c5cc(OC)ccc5c4CCN3C[C@H]2C[C@@H](OC(=O)c2cc(OC)c(OC)c(OC)c2)[C@@H]1OC` [PCM-0214638], the inhibition at 10 µM turned out to be 35%.
Still for that read-out and setting: as for `COc1cc2c(cc1OC)[C@@H]1Cc3ccc(OC)c(OC)c3CN1CC2` [PCM-0094863], the figure is 3.9%; as for `CC(C)=C[C@H]1C[C@](C)(O)[C@@H]2[C@H]3CC[C@@H]4[C@@]5(C)CC[C@H](O[C@@H]6OC[C@H](O)[C@H](O[C@@H]7O[C@H](CO[C@@H]8O[C@H](CO)[C@@H](O)[C@H](O)[C@H]8O)[C@@H](O)[C@H](O)[C@H]7O[C@@H]7OC[C@@H](O)[C@H](O)[C@H]7O)[C@H]6O[C@@H]6O[C@@H](C)[C@H](O)[C@@H](O)[C@H]6O)C(C)(C)[C@@H]5CC[C@@]4(C)[C@@]34CO[C@@]2(C4)O1` [PCM-0216469], 10%.
Still for that read-out and setting: as for `Oc1cc2c(cc1O)[C@@H]1c3ccc(O)c(O)c3OC[C@]1(O)C2` [PCM-0094861], the figure is -15.6%; as for `CC1(COc2ccc3c(c2)ncn3-c2ccc3cccc(N4CCC(N)CC4)c3n2)COC1` [PCM-0095459], 6.2%; as for `CN1CCN(Cc2ccc(NC(=O)Nc3ccc(Oc4ccnc(N)n4)cc3)cc2C(F)(F)F)CC1` [PCM-0215587], 31%.
Still for that read-out and setting: as for `CN1[C@@H]2CC(O)C[C@H]1[C@@H]1O[C@@H]12` (stereo partly shown) [PCM-0095322], the figure is -2.3%.
For the molecule `CC(C)=CCC[C@@](C)(O)[C@H]1CC[C@]2(C)[C@@H]1[C@H](O)C[C@@H]1[C@@]3(C)CC[C@H](O[C@@H]4O[C@H](CO)[C@@H](O)[C@H](O)[C@H]4O[C@@H]4O[C@H](CO)[C@@H](O)[C@H](O)[C@H]4O)C(C)(C)[C@@H]3CC[C@]12C` [PCM-0216609], the inhibition at 10 µM is 21.6%.
On the same count and under the same terms, as for `O=c1[nH]c2ccccc2o1` [PCM-0216203], the figure is 5.4%.
On the same count and under the same terms, the figure for `Nc1cccc(S(=O)(=O)N2CCCN(S(=O)(=O)c3ccc4c(c3)OCCO4)CC2)c1` [PCM-0215556] is -2.8%; for `C[C@H]1[C@H](NC(=O)/C(=N\OC(C)(C)C(=O)O)c2csc(N)n2)C(=O)N1S(=O)(=O)O` [PCM-0085816] it is -15.6%; for `COc1ccc(-c2nc(-c3cc(C(F)(F)F)cc(C(F)(F)F)c3)n(Cc3ccc(C(N)=O)cc3)c2-c2ccc(OC)cc2)cc1` [PCM-0215748] it is 57.1%.
As to `CC1(C)CC[C@]2(C(=O)O)CCC3=C([C@@H](CCl)C[C@@H]4[C@@]5(C)C[C@H](O)[C@H](O)[C@@](C)(C(=O)O)[C@@H]5CC[C@@]34C)[C@@H]2C1` [PCM-0216388], the inhibition at 10 µM was -4.6%.
With `COC(=O)c1ccco1` [PCM-0216224], the inhibition at 10 µM is -23.9%.
For `CN1CC[C@@H](c2c(O)cc(O)c3c(=O)cc(-c4ccccc4Cl)oc23)[C@@H]1CO` [PCM-0215197], the inhibition at 10 µM was -5.5%.
As for `C1N2CN3CN1CN(C2)C3` [PCM-0086204], the inhibition at 10 µM was -8.6%.
The same measure, in the same setting: the figure for `COc1cc2ncnc(Nc3ccc(Cl)cc3F)c2cc1OC` [PCM-0095361] is 31%; for `OCc1ccc(O[C@@H]2O[C@H](CO)[C@@H](O)[C@H](O)[C@H]2O)cc1` [PCM-0094551] it is 17.9%; for `C[C@@]1(CO)C[C@@H](O)C[C@@]2(C)[C@@H]3CC[C@](C)([C@@H](O)CO)C=C3CC[C@H]12` [PCM-0216530] it is 20.8%.
Still for that read-out and setting: as for `Cc1cnc(Nc2ccc(N3CCN(C)CC3)cc2)nc1Nc1cccc(S(=O)(=O)NC(C)(C)C)c1` [PCM-0095386], the figure is 82.8%; as for `CCCCCC/C=C\CCCCCCCc1cccc(O)c1C(=O)O` [PCM-0216327], 84.2%.
On to `C[C@H](NC(=O)c1c(N)nn2cccnc12)c1cc2cccc(C#Cc3cnn(C)c3)c2c(=O)n1-c1ccccc1` [PCM-0215846], for which the inhibition at 10 µM was found to be 20%.
The same measure, in the same setting: as for `CCCCCCCCCC(C)O` (stereo not shown) [PCM-0216633], the figure is -30.1%.
Same read-out and setting: as for `NC1=N[C@@](c2cccc(-c3cncnc3)c2)(c2ccnc(C(F)F)c2)c2cccc(F)c21` [PCM-0215490], the figure is -5.4%; as for `CN[C@H]1CC[C@@H](c2ccc(Cl)c(Cl)c2)c2ccccc21` [PCM-0064965], -19.5%; as for `CCN(CC)C(=S)SSC(=S)N(CC)CC` [PCM-0064895], -5.5%.
Take `COc1ccc(-c2oc3cc(O)cc(O)c3c(=O)c2O)cc1` [PCM-0215098]: the inhibition at 10 µM worked out at 5.5%.
The same measure, in the same setting: as for `CC1(C)CC[C@]2(C(=O)O)[C@H](O)C[C@]3(C)C(=CC[C@@H]4[C@@]5(C)C[C@H](O)[C@H](O)[C@@](C)(CO)[C@@H]5CC[C@]43C)[C@@H]2C1` [PCM-0216296], the figure is -10.8%; as for `CC(C)=CCC[C@](C)(O[C@@H]1O[C@H](CO)[C@@H](O)[C@H](O)[C@H]1O)[C@H]1CC[C@]2(C)[C@@H]1[C@H](O)C[C@@H]1[C@@]3(C)CC[C@H](O)C(C)(C)[C@@H]3[C@@H](O[C@@H]3O[C@H](CO)[C@@H](O)[C@H](O)[C@H]3O[C@@H]3OC[C@@H](O)[C@H](O)[C@H]3O)C[C@]12C` [PCM-0215161], 5.5%; as for `Cc1ccc(-c2c(-c3nn(C)c4ncnc(N5CC[C@H](N6CCCCC6)C5)c34)cnn2C)cc1` [PCM-0095421], -2.3%.
On the same count and under the same terms, the figure for `CC(=O)OCCc1ccc(O)c(O)c1` [PCM-0214986] is -9.7%.
On the same count and under the same terms, the figure for `C[C@@H]1O[C@@H](OC[C@H]2O[C@@H](Oc3cc(O)c4c(=O)cc(-c5ccc(O)cc5)oc4c3)[C@H](O[C@@H]3O[C@@H](C)[C@H](O)[C@@H](O)[C@H]3O)[C@@H](O)[C@@H]2O)[C@H](O)[C@H](O)[C@H]1O` [PCM-0216389] is 13.9%.
For the molecule `O=C1c2cccc3c2[C@H](CCC3)CN1[C@@H]1CN2CCC1CC2` [PCM-0095539], the inhibition at 10 µM was 4.3%.
Same read-out and setting: as for `N=C(N)c1ccc2cc(OC(=O)c3ccc(N=C(N)N)cc3)ccc2c1` [PCM-0095060], the figure is -1.6%; as for `CCCc1cc(-c2nc(-c3ccc(C)cc3)cs2)ccn1` [PCM-0215677], 6.9%; as for `COc1cc2c(cc1OC)[C@H]1[C@@H](C)c3ccc(OC)c(OC)c3CN1CC2` [PCM-0216500], -27%.
Same read-out and setting: as for `O=C(CCCCCCNC(=O)c1cnc(N(c2ccccc2)c2ccccc2Cl)nc1)NO` [PCM-0214593], the figure is -6.9%.
On the same count and under the same terms, as for `CC(C)(N)C(=O)N[C@H](COCc1ccccc1)C(=O)N1CCC2(CC1)CN(S(C)(=O)=O)c1ccccc12` [PCM-0216059], the figure is -11.7%.
As for `Cc1cc(C(=O)O)n[nH]1` [PCM-0216163], the inhibition at 10 µM is -0.8%.
As to `CC1(C)S[C@@H]2[C@H](NC(=O)C(C(=O)O)c3ccccc3)C(=O)N2[C@H]1C(=O)O` (stereo partly shown) [PCM-0214723], the inhibition at 10 µM was found to be 10.1%.
The same measure, in the same setting: as for `CCOc1cc(CC(=O)N[C@@H](CC(C)C)c2ccccc2N2CCCCC2)ccc1C(=O)O` [PCM-0086171], the figure is 17.1%; as for `O=c1ccn([C@@H]2O[C@H](COP(=O)(O)O)[C@@H](O)[C@H]2O)c(=O)[nH]1` [PCM-0216290], -6.8%.
On the same count and under the same terms, the figure for `Clc1cccc(Cl)c1NC1=NCCN1` [PCM-0064514] is -19.5%.
